Source: a melting point compilation (Tetko et al.; mined from patent text by program, amines drawn as free bases though some values may be those of a salt)

Row | Compound | melting point [°C]
1 | N#CC1=C(n2cccc2)Oc2c(ccc3cc(C(=O)O)c(O)cc23)C1c1cccc([N+](=O)[O-])c1 (stereo not given) | > 230
2 | O=C(Nc1cccc2c1C(=O)c1c-2n[nH]c1C1CCN(C(=O)N2C[C@@H]3C[C@H]2CN3)CC1)NN1CCOCC1 | 196 to 198
3 | Cc1c(OCc2ccccc2)c(=O)ccn1CC(=O)NCCCCNCCCNC(=O)Cn1ccc(=O)c(OCc2ccccc2)c1C | 89
4 | CCOCn1cnc2c(N)nc3ccccc3c21 | 255 to 261
5 | Cc1cc(-c2cnn3c(C(F)(F)F)cc(-c4ccc(C(F)(F)F)c(OCC(F)(F)F)c4)nc23)ccn1 | 201
6 | COc1ccccc1N1CCN(CC(O)COc2ccc(OCc3ccccc3)c3ccccc23)CC1 (stereo not given) | 143 to 145
7 | Nc1nc(NC(CO)CO)c2ncn(C3C=CC(CO)C3)c2n1 (stereo not given) | 160 to 162
8 | Cc1nc2c(O[C@@H]3c4ccccc4CC[C@H]3O)cccn2c1CC#N (relative stereo) | 154 to 155
9 | COc1cc(Nc2c(C#N)cnc3cc(-c4csc(CN5CCOCC5)c4)ccc23)c(Cl)cc1C | 168 to 170
10 | CNC(=O)n1nc(Oc2ccc([N+](=O)[O-])cc2C(F)(F)F)c(C)c1C | 113 to 115
11 | CC(C)N1C(=O)NC(c2cnc3ccccc3c2)c2cc3c(cc21)OCO3 (stereo not given) | 202 to 205
12 | CN(Cc1cc(C(F)(F)F)cc(C(F)(F)F)c1)C(=O)c1c(-c2ccc(F)cc2)c2c(c(=O)n1C)CCCN2C | 230 to 232
13 | Cc1cc2c(cc1C)-n1nnnc1C=C(c1ccc(-n3c(C)nc4cnccc43)cc1)N2 | 315
14 | CCCCn1c(=O)c2c(NC)n[nH]c2n(Cc2ccccc2[N+](=O)[O-])c1=O | > 300
15 | COC1C(CO)OC(n2cnc3c(N)ncnc32)C1(C)O (stereo not given) | 180
16 | COc1ccc(-n2nc(Sc3cc(C)ccc3C)c(C)c(C#N)c2=O)cc1 | 140 to 142
17 | CC(=O)C(C(C)=O)C(C(C)=O)C(C)=O | 193 to 194
18 | CCN(CC)CCOc1ccc2cc3ccc(OCCN(CC)CC)cc3nc2c1 | 94 to 95
19 | CC1(C)CC2(CC(C)(C)c3ccc(Oc4cccc(N)c4)cc32)c2cc(Oc3cccc(N)c3)ccc21 | 206
20 | CSC1C(=O)Nc2c(Oc3c(Cl)cccc3Cl)cccc21 (stereo not given) | > 230
21 | NS(=O)(=O)c1cc(C(=O)O)cc([N+](=O)[O-])c1NC1CCCCC1 | 185 to 186
22 | CC(C)n1c2ccccc2c2sccc(=O)c21 | 154 to 156
23 | Cc1cc(N)cc(C)c1Oc1ccc(O)c(C(C)C)c1 | 180 to 181

Other lines, results leading:

Row | melting point [°C] | Compound
24 | 177 to 179 | CN(C)c1ccc(C(=O)N2CCC(C(c3ccccc3)c3ccccc3)CC2)cc1
25 | 141 to 143 | CCCCNCc1cc(N)c(Cc2ccccc2)c(S(N)(=O)=O)c1
26 | 214 to 217 | COc1cc(N)c(Cl)cc1C(=O)NCC1CCN(CCCCCNC(=O)Nc2ccccc2)CC1
27 | 163 to 165 | CCC(C)(O)C(=O)Nc1ccc(S(=O)(=O)c2ccccc2)cc1 (stereo not given)
28 | 182 to 184 | CCCCCC(=O)ONC(=N)c1ccc(NC(=O)CCCC(=O)Nc2ccc(C(=N)NOC(=O)CCCCC)cc2)cc1
29 | 319 to 320 | O=C(NCc1ccc(Cl)cc1)c1cnc2c(O)cccc2c1O
30 | 140 to 144 | CN1CCCC1=NC(=O)Nc1ccccc1
31 | 200 to 205 | O=C1NC(=O)[C@@]2(C[C@@H](C(=O)NCCN3CCN(C(c4ccccc4)c4ccccc4)CC3)Oc3ccc(F)cc32)N1
32 | 130 to 132 | CCOC(=O)CC(C)NC(=O)c1ccc(N2CCN(c3ccncc3)CC2)cc1 (stereo not given)
33 | 243 to 244 | CC(C)(C)c1ccc(-c2[nH]c3cccc4c3c2CCNC4=O)cc1
34 | 84 to 86 | CC(C)(C)c1cccc(S(=O)(=O)n2ccc3cc(C(F)(F)F)ccc32)c1
35 | 89 to 95 | Cc1ncncc1C(=O)Nc1ccc(-n2nc(C3CC3)cc2C2CC2)cc1
